From patent publication US20170008888A1 (KYORIN PHARMACEUTICAL CO., LTD., priority 2014, published 2017)
pEC50, pIC50: −log10 of the molar value.

Assays:
MV-4-11 cells [1] = experiment: Combination study with Ara-C in MV-4-11 cells (CellTiter-Glo); format: cell-based, human; details: 48 h
Protocol: Human biphenotypic B myelomonocytic leukemia MV-4-11 cells (ATCC, Manassas, Va.) treated with test compounds at 2e5 cells/ml in IMDM medium containing 10% (v/v) FBS (Life Technologies, Grand Island, N.Y.) and 1×Pen/Strep Amphotericin B (Lonza, Allendale, N.J.). The final concentration of a test compound was set at a concentration previously determined to be its EC50 and Y3 EC50 values, while the combination test drug (Arabinofuranosyl Cytidine (Ara-C))(Sigma, St. Louis, Mo.) was assayed in serially-diluted 9-point concentrations against this background. Cells were treated for 48 h at 37° C. in a humidified atmosphere at 5% CO2. Cell viability was then determined indirectly via ATP content using the CellTiter-Glo® luminescent cell viability assay (Promega, Madison, Wis.) as per the manufacturer's instructions as follows: Briefly, experimental plates were equilibrated at room temperature for 30 minutes. An equal volume of CellTiter-Glo reagent was added to each well and incubated for 15 minutes at room temperature. Luminescent signal was read using the Wallac 1420 Victor2 multilabel microplate reader (Perkin Elmer, Waltham, Mass.).

TAO2 = molecular target: T1, TAO2 (Homo sapiens, UniProt Q9UL54); experiment: Probe-based (AX9989) kinase profiling in Jurkat lysate: TAO2; format: binding; details: screening concentration 10.0 μM; read-out: Kinase inhibition % at indicated screening concentration: TAO2
T1 construct: screened for activity against several kinases in Jurkat cells; endogenous in cells; host or cells: Jurkat cell lysate
T1 sequence (Q9UL54 1-1235): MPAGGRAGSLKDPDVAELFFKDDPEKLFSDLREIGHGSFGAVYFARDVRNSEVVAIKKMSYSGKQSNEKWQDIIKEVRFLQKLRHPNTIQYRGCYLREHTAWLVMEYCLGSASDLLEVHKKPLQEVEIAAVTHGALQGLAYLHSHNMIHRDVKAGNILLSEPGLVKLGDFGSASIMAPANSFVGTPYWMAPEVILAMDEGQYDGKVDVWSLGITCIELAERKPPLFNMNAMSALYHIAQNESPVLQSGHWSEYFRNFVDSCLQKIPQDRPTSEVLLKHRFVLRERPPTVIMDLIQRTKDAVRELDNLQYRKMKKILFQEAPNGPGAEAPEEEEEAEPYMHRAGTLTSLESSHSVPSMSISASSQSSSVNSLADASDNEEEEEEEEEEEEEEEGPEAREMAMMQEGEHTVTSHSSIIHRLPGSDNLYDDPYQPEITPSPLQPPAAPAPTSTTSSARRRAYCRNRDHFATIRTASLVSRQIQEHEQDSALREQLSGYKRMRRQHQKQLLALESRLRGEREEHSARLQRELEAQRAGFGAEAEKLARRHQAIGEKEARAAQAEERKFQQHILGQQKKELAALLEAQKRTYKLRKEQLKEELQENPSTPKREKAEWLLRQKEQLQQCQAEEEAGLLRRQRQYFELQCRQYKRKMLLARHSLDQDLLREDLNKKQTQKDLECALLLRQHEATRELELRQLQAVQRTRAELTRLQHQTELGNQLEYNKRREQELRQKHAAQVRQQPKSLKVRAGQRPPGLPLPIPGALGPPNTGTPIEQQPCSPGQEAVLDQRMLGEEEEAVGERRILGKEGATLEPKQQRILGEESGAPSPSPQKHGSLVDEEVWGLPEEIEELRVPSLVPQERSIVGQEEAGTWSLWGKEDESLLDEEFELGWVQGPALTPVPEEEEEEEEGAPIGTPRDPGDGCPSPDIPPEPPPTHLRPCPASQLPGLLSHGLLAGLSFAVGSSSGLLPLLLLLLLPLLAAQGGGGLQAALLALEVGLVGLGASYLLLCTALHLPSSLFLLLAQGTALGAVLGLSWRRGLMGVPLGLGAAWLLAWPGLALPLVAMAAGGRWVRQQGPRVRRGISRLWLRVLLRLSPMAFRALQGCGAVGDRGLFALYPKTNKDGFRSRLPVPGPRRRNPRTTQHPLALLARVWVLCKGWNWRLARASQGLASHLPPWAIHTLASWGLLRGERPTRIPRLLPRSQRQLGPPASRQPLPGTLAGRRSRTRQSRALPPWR
Procedure, shortened: (§1)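 Jurkat lysate (50 mM HEPES pH 7.5, 150 mM NaCl, 0.1% Triton X-100, 20 mM MnCl2) pre-incubated 15 min with compound at room temperature, then labeled with 5 μM acyl phosphate ATP probe AX9989. Tryptic probe-labeled peptides streptavidin-captured and quantified by LC/MS; percent inhibition from decreased fragment intensity versus untreated.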

MV-4-11 cells [2] = experiment: MV-4-11 proliferation EC50 assay (CellTiter-Glo); format: cell-based; details: Homo sapiens, MV4-11, 48 h, read-out: MV-4-11 proliferation EC50, ave. ± S.D.
Protocol: Human biphenotypic B myelomonocytic leukemia MV-4-11 cells (ATCC, Manassas, Va.) were treated with test compounds at 2e5 cells/ml in IMDM medium containing 10% (v/v) FBS (Life Technologies, Grand Island, N.Y.) and 1×Pen/Strep Amphotericin B (Lonza, Allendale, N.J.). Compounds were tested at 25 μM down by ⅓ in a 9 point serial dilution series. Cells were incubated for 48 h at 37° C. in a humidified atmosphere at 5% CO2. MV-4-11 cell proliferation was then indirectly determined via cellular ATP content using the CellTiter-Glo® Luminescent Cell Viability Assay (Promega, Madison, Wis.) as per the manufacturer's instructions. Briefly, experimental plates were equilibrated at room temperature for 30 minutes. An equal volume of CellTiter-Glo® reagent was added to each well and incubated for 15 minutes at room temperature. Luminescent signal was read using the Wallac 1420 Victor^2 multilabel microplate reader (Perkin Elmer, Waltham, Mass.). EC50 values were determined using GraphPad Prism software v5.04.

ERK5 = molecular target: T2, ERK5 (Homo sapiens, UniProt Q13164); experiment: Probe-based (AX9989 acyl phosphate ATP probe) kinase profiling in Jurkat lysate: ERK5; format: binding
T2 construct: screened for activity against several kinases in Jurkat cells; endogenous in cells; host or cells: Jurkat cell lysate
T2 sequence (Q13164 whole entry): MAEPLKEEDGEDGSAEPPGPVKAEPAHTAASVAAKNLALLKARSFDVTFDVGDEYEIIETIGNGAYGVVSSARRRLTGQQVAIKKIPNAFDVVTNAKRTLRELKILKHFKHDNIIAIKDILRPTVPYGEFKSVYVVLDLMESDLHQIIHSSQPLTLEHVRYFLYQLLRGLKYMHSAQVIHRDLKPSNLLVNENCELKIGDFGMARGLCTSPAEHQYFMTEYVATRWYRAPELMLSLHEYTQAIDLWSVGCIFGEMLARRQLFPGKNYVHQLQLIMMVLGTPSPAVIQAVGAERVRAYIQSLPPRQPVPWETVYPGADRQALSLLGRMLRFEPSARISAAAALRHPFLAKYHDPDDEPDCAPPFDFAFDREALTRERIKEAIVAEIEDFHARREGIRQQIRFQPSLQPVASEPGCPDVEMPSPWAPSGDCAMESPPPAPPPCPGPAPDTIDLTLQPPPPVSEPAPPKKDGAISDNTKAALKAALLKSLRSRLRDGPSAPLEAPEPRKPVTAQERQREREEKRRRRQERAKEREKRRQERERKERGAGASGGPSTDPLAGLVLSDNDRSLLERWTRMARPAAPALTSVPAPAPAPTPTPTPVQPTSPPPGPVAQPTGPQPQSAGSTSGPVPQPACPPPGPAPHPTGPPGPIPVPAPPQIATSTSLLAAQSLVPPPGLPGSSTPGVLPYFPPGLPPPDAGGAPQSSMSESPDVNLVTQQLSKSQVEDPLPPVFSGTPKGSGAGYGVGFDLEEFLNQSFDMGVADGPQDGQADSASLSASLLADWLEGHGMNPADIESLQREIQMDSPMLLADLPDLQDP
Procedure, shortened: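 ERK5 IC50 values came from percent inhibition at the screening concentration, measured as loss of LC/MS signal of probe-labelled active-site peptides. Compound was added for 15 min at room temperature to Jurkat lysate (5 mg/ml, 20 mM MnCl2) before labelling with AX9989 ATP acyl phosphate probe at 5 μM.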

JAK1 = molecular target: T3, JAK1 (Homo sapiens, UniProt P23458); experiment: Probe-based (AX9989) kinase profiling in Jurkat lysate: JAK1; format: binding; details: screening concentration 10.0 μM; read-out: Kinase inhibition % at indicated screening concentration: JAK1
T3 construct: screened for activity against several kinases in Jurkat cells; endogenous in cells; host or cells: Jurkat cell lysate
T3 sequence (P23458 whole entry): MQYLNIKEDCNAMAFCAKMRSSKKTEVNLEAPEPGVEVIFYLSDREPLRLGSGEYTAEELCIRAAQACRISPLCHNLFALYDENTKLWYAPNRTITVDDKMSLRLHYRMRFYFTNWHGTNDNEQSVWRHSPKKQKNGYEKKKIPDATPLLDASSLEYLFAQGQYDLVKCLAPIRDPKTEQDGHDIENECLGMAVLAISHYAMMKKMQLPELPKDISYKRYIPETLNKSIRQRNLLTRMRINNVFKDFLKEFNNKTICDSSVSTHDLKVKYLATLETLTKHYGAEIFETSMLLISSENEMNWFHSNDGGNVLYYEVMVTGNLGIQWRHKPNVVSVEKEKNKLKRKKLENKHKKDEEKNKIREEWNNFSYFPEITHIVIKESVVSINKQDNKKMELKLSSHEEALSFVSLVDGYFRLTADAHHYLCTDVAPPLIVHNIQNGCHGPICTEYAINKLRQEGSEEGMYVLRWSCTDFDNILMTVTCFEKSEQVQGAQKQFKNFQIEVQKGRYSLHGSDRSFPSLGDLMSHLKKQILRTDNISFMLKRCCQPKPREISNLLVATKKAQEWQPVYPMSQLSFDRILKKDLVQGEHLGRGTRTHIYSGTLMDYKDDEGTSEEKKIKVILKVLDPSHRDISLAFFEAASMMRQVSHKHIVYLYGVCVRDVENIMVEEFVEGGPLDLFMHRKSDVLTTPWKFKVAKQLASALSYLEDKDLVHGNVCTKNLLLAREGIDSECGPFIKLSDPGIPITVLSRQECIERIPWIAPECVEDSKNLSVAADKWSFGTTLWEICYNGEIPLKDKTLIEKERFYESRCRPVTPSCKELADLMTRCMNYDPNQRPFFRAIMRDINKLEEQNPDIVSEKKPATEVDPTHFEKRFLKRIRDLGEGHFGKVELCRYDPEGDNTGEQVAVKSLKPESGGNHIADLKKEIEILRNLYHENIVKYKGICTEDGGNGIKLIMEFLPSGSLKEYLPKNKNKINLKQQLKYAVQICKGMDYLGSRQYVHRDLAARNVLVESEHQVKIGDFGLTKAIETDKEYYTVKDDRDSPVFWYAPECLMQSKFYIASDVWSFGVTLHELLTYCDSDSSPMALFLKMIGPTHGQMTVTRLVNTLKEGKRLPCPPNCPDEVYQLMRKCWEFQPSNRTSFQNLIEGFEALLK
Procedure, shortened: as §1

AMPKa1 or AMPKa2 = experiment: Probe-based (AX9989) kinase profiling in Jurkat lysate: AMPKa1 or AMPKa2; format: binding; details: screening concentration 10.0 μM
Procedure, shortened: as §1

AurB or AurC = experiment: Probe-based (AX9989) kinase profiling in Jurkat lysate: AurB or AurC; format: binding; details: screening concentration 10.0 μM
Procedure, shortened: as §1

ABL or ARG = experiment: Probe-based (AX9989) kinase profiling in Jurkat lysate: ABL or ARG; format: binding; details: screening concentration 10.0 μM
Procedure, shortened: as §1

ACK = molecular target: T4, ACK (Homo sapiens, UniProt Q07912); experiment: Probe-based (AX9989) kinase profiling in Jurkat lysate: ACK; format: binding; details: screening concentration 10.0 μM; read-out: Kinase inhibition % at indicated screening concentration: ACK
T4 construct: screened for activity against several kinases in Jurkat cells; endogenous in cells; host or cells: Jurkat cell lysate
T4 sequence (Q07912 whole entry): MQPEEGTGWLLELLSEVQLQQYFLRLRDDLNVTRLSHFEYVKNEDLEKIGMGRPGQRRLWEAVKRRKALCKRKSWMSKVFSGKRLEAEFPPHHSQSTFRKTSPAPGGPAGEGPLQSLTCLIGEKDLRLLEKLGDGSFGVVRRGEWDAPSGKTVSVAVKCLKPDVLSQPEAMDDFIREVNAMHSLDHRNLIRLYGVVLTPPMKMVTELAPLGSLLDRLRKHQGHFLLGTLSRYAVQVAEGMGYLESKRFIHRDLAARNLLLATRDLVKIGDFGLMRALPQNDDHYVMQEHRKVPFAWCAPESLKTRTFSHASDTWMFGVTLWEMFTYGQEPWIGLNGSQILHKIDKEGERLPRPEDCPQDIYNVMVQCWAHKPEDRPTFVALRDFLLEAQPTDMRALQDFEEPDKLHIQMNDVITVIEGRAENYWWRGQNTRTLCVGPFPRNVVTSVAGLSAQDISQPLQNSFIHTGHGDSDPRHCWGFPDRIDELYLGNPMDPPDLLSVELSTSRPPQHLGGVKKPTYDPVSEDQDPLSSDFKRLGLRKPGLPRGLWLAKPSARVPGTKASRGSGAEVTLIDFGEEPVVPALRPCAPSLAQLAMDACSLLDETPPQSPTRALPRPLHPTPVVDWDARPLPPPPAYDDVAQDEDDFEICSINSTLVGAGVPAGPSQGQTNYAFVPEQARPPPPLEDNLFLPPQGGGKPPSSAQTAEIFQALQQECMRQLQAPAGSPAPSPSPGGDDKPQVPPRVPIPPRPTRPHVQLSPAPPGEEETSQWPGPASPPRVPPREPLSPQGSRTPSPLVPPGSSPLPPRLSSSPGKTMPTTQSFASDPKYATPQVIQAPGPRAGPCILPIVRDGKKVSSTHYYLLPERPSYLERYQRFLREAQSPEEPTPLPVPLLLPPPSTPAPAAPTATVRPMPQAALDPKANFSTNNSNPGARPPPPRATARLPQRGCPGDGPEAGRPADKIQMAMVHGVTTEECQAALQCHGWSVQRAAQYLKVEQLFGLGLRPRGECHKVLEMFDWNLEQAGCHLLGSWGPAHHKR
Procedure, shortened: as §1

AurA = molecular target: T5, AurA (Homo sapiens, UniProt O14965); experiment: Probe-based (AX9989) kinase profiling in Jurkat lysate: AurA; format: binding; details: screening concentration 10.0 μM; read-out: Kinase inhibition % at indicated screening concentration: AurA
T5 construct: screened for activity against several kinases in Jurkat cells; endogenous in cells; host or cells: Jurkat cell lysate
T5 sequence (O14965 1-403): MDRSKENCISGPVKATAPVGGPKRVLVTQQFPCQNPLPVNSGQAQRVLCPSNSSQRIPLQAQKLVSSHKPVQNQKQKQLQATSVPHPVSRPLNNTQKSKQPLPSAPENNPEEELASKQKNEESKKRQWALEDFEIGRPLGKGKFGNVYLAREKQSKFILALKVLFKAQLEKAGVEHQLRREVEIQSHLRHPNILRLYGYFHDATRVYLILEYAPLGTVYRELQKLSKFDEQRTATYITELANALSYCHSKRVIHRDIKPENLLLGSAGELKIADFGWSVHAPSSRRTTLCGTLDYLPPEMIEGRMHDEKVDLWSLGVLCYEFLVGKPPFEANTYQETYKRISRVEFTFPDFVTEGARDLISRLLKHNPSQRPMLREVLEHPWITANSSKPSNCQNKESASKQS
Procedure, shortened: as §1

SMILES | EC50 (MV-4-11 cells [1]; read-out: EC50 (μM) of Ara-C in combination with a fixed concentration of compound 61 at EC50) [µM] | EC50 (MV-4-11 cells [1]; read-out: EC50 (μM) of Ara-C in combination with a fixed concentration of compound 61 at ⅓ EC50) [µM] | EC50 (MV-4-11 cells [1]; read-out: EC50 (μM) of Ara-C, compound 61 not present) [µM] | inhibition at 10 µM (TAO2) [%] | pEC50 (MV-4-11 cells [2]) | pIC50 (ERK5; calculated from percent inhibition of AX9989 labeling and the screening concentration, Jurkat lysate) | inhibition at 10 µM (ERK5; screening concentration 10.0 μM, read-out: Kinase inhibition % at indicated screening concentration: ERK5) [%] | inhibition at 10 µM (JAK1) [%] | Kinase inhibition % at indicated screening concentration: AMPKa1 or AMPKa2 (AMPKa1 or AMPKa2) | Kinase inhibition % at indicated screening concentration: AurB or AurC (AurB or AurC) | Kinase inhibition % at indicated screening concentration: ABL or ARG (ABL or ARG) | inhibition at 10 µM (ACK) [%] | inhibition at 10 µM (AurA) [%]
Nc1ccn([C@@H]2O[C@H](CO)[C@@H](O)[C@@H]2O)c(=O)n1 [Ara-C] | 0.108 | 0.265 | 0.353 | – | – | – | – | – | – | – | – | – | –
CN1C(=O)c2ccccc2N(C)c2cc(Nc3ccc(N4CCC(O)CC4)cn3)ncc21 [Compound 4] | – | – | – | 50 to 75 | 7.22 | < 6.30 | 75 to 90 | 50 to 75 | C (C is >50% to ≦75%) | A (A>90%) | C (C is >50% to ≦75%) | 75 to 90 | > 90
